According to patent US10626112B2, “Heterocyclic sulfonamide derivative and medicine comprising same” (EA PHARMA CO., LTD., priority 2014, dated 2020):

Biological target: human TRPA1 (Homo sapiens (Human), UniProt O75762)
Assay: Measurement of TRPA1 antagonist activity (1): intracellular calcium increase
Assay type: cell-based
Conditions: 293T cells transfected with human TRPA1 expression plasmid; allylisothiocyanate 20 μM stimulation; intracellular calcium fluorescence; read-out: hTRPA1 IC50
Summary of the method: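 Calcium-flux readout of TRPA1 block: compound given 10 min before 20 μM (final) allylisothiocyanate, fluorescence tracked 5 min. Cells were 293T transiently expressing human TRPA1, dye-loaded 1 hr in HBSS, 20 mM HEPES, pH 7.2. Inhibition scaled between agonist-only and buffer-only responses; IC50 by sigmoid fitting.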

Sequence of human TRPA1 (O75762 whole entry): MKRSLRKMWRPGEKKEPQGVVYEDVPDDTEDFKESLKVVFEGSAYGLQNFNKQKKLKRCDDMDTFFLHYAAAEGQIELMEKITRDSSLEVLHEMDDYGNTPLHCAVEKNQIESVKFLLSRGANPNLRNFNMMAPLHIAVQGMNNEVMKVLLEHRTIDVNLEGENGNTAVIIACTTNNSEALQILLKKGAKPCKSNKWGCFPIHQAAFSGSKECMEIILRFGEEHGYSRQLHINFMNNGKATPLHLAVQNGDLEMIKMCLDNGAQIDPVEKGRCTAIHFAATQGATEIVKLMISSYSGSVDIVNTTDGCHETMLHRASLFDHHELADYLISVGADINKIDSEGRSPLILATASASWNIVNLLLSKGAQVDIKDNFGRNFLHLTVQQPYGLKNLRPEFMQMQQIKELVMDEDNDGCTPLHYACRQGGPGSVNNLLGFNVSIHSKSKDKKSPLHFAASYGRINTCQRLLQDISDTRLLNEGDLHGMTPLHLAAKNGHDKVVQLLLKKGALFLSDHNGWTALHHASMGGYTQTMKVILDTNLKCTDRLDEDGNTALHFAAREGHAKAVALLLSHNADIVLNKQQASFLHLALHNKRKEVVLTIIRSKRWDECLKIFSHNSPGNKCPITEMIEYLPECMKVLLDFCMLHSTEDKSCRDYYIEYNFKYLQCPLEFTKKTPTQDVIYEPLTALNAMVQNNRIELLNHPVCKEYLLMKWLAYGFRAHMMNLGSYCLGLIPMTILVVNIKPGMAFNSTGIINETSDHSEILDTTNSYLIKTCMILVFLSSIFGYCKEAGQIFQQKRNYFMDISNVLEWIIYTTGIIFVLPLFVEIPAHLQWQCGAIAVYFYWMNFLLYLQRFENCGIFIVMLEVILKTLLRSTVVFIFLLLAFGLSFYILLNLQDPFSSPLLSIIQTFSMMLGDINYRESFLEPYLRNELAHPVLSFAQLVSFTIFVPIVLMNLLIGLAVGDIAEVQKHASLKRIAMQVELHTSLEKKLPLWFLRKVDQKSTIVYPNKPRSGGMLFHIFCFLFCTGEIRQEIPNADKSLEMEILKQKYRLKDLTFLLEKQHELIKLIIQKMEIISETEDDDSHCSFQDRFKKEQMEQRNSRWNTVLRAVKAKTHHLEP

SMILES | IC50 [nM]
O=C(NCc1ccnc(-c2ccccc2O)c1)[C@@H]1CCCN1S(=O)(=O)c1cc2ccccc2o1 [Example 120, (2S)-1-(benzofuran-2-ylsulfonyl)-N-[[2-(2-hydroxyphenyl)-4-pyridyl]methyl]pyrrolidine-2-carboxamide] | 180
O=C(NCc1ccnc(-c2cc(F)c(F)cc2O)c1)[C@@H]1CCCN1S(=O)(=O)c1cc2ccccc2o1 [Example 122, (2S)-1-(benzofuran-2-ylsulfonyl)-N-[[2-(4,5-difluoro-2-hydroxy-phenyl)-4-pyridyl]methyl]pyrrolidine-2-carboxamide] | 170
N#Cc1ccc(-c2cc(CNC(=O)[C@@H]3CCCN3S(=O)(=O)c3cc4ccccc4o3)ccn2)c(OCc2ccccc2)c1 [Example 126, (2S)-1-(benzofuran-2-ylsulfonyl)-N-[[2-(2-benzyloxy-4-cyano-phenyl)-4-pyridyl]methyl]pyrrolidine-2-carboxamide] | 78
O=C(NCc1ccnc(-c2ccc(OC(F)(F)F)cc2)c1)[C@@H]1CCCN1S(=O)(=O)c1cc2cc(F)ccc2o1 [Example 129, (2S)-1-(5-fluorobenzofuran-2-yl)sulfonyl-N-[[2-[4-(trifluoromethoxy)phenyl]-4-pyridyl]methyl]pyrrolidine-2-carboxamide] | 0.61
O=C(NCc1ccnc(-c2ccc(OC(F)F)cc2)c1)[C@@H]1CCCN1S(=O)(=O)c1cc2cc(F)ccc2o1 [Example 130, (2S)-N-[[2-[4-(difluoromethoxy)phenyl]-4-pyridyl]methyl]-1-(5-fluorobenzofuran-2-yl)sulfonyl-pyrrolidine-2-carboxamide] | 2
COc1ccc(-c2cc(CNC(=O)[C@@H]3CCCN3S(=O)(=O)c3cc4cc(F)ccc4o3)ccn2)cc1 [Example 131, (2S)-1-(5-fluorobenzofuran-2-yl)sulfonyl-N-[[2-(4-methoxyphenyl)-4-pyridyl]methyl]pyrrolidine-2-carboxamide] | 32
N#Cc1ccc(-c2cc(CNC(=O)[C@@H]3CCCN3S(=O)(=O)c3cc4cc(F)ccc4o3)ccn2)cc1 [Example 132, (2S)-N-[[2-(4-cyanophenyl)-4-pyridyl]methyl]-1-(5-fluorobenzofuran-2-yl)sulfonyl-pyrrolidine-2-carboxamide] | 7.6
O=C(NCc1ccnc(-c2cnc(C3CC3)nc2)c1)[C@@H]1CCCN1S(=O)(=O)c1cc2cc(F)ccc2o1 [Example 134, (2S)-N-[[2-(2-cyclopropylpyrimidin-5-yl)-4-pyridyl]methyl]-1-(5-fluorobenzofuran-2-yl)sulfonyl-pyrrolidine-2-carboxamide] | 42
O=C(NCc1ccnc(-c2ccccc2O)c1)[C@@H]1CCCN1S(=O)(=O)c1cc2cc(F)ccc2o1 [Example 135, (2S)-1-(5-fluorobenzofuran-2-yl)sulfonyl-N-[[2-(2-hydroxyphenyl)-4-pyridyl]methyl]pyrrolidine-2-carboxamide] | 30
O=C(NCc1ccnc(-c2ccc(F)cc2O)c1)[C@@H]1CCCN1S(=O)(=O)c1cc2cc(F)ccc2o1 [Example 136, (2S)-1-(5-fluorobenzofuran-2-yl)sulfonyl-N-[[2-(4-fluoro-2-hydroxy-phenyl)-4-pyridyl]methyl]pyrrolidine-2-carboxamide] | 13
O=C(NCc1ccnc(-c2cc(F)c(F)cc2O)c1)[C@@H]1CCCN1S(=O)(=O)c1cc2cc(F)ccc2o1 [Example 137, (2S)-N-[[2-(4,5-difluoro-2-hydroxy-phenyl)-4-pyridyl]methyl]-1-(5-fluorobenzofuran-2-yl)sulfonyl-pyrrolidine-2-carboxamide] | 29
O=C(NCc1ccnc(-c2ccc(C(F)(F)F)cc2O)c1)[C@@H]1CCCN1S(=O)(=O)c1cc2cc(F)ccc2o1 [Example 138, (2S)-1-(5-fluorobenzofuran-2-yl)sulfonyl-N-[[2-[2-hydroxy-4-(trifluoromethyl)phenyl]-4-pyridyl]methyl]pyrrolidine-2-carboxamide] | 0.97
O=C(NCc1cncc(-c2ccc(C(F)(F)F)cc2)c1)[C@@H]1CCCN1S(=O)(=O)c1cc2cc(F)ccc2o1 [Example 139, (2S)-1-(5-fluorobenzofuran-2-yl)sulfonyl-N-[[5-[4-(trifluoromethyl)phenyl]-3-pyridyl]methyl]pyrrolidine-2-carboxamide] | 3
O=C(NCc1cncc(-c2ccc(C(F)(F)F)nc2)c1)[C@@H]1CCCN1S(=O)(=O)c1cc2cc(F)ccc2o1 [Example 140, (2S)-1-(5-fluorobenzofuran-2-yl)sulfonyl-N-[[5-[6-(trifluoromethyl)-3-pyridyl]-3-pyridyl]methyl]pyrrolidine-2-carboxamide] | 2.2
O=C(NCc1cncc(-c2ccc(C(F)(F)F)cn2)c1)[C@@H]1CCCN1S(=O)(=O)c1cc2cc(F)ccc2o1 [Example 141, (2S)-1-(5-fluorobenzofuran-2-yl)sulfonyl-N-[[5-[5-(trifluoromethyl)-2-pyridyl]-3-pyridyl]methyl]pyrrolidine-2-carboxamide] | 3.3
N#Cc1ccc(-c2cncc(CNC(=O)[C@@H]3CCCN3S(=O)(=O)c3cc4cc(F)ccc4o3)c2)cc1 [Example 142, (2S)-N-[[5-(4-cyanophenyl)-3-pyridyl]methyl]-1-(5-fluorobenzofuran-2-yl)sulfonyl-pyrrolidine-2-carboxamide] | 24
O=C(NCc1cccc(-c2ccccc2O)n1)[C@@H]1CCCN1S(=O)(=O)c1cc2cc(F)ccc2o1 [Example 143, (2S)-1-(5-fluorobenzofuran-2-yl)sulfonyl-N-[[6-(2-hydroxyphenyl)-2-pyridyl]methyl]pyrrolidine-2-carboxamide] | 260
O=C(NCc1cccc(-c2ccc(C(F)(F)F)cc2)n1)[C@@H]1CCCN1S(=O)(=O)c1cc2cc(F)ccc2o1 [Example 144, (2S)-1-(5-fluorobenzofuran-2-yl)sulfonyl-N-[[6-[4-(trifluoromethyl)phenyl]-2-pyridyl]methyl]pyrrolidine-2-carboxamide] | 47
O=C(NCc1cccc(-c2ccc(C(F)(F)F)nc2)n1)[C@@H]1CCCN1S(=O)(=O)c1cc2cc(F)ccc2o1 [Example 145, (2S)-1-(5-fluorobenzofuran-2-yl)sulfonyl-N-[[6-[6-(trifluoromethyl)-3-pyridyl]-2-pyridyl]methyl]pyrrolidine-2-carboxamide] | 29
N#Cc1ccc(-c2cccc(CNC(=O)[C@@H]3CCCN3S(=O)(=O)c3cc4cc(F)ccc4o3)n2)cc1 [Example 146, (2S)-N-[[6-(4-cyanophenyl)-2-pyridyl]methyl]-1-(5-fluorobenzofuran-2-yl)sulfonyl-pyrrolidine-2-carboxamide] | 310

Continued, values first:

IC50 [nM] | SMILES
2.9 | O=C(NCc1ccnc(-c2ccc(OC(F)(F)F)cc2)c1)[C@@H]1CCCN1S(=O)(=O)c1cc2ccccc2o1 [Example 116, (2S)-1-(benzofuran-2-ylsulfonyl)-N-[[2-[4-(trifluoromethoxy)phenyl]-4-pyridyl]methyl]pyrrolidine-2-carboxamide]
14 | N#Cc1ccc(-c2cc(CNC(=O)[C@@H]3CCCN3S(=O)(=O)c3cc4ccccc4o3)ccn2)cc1 [Example 117, (2S)-1-(benzofuran-2-ylsulfonyl)-N-[[2-(4-cyanophenyl)-4-pyridyl]methyl]pyrrolidine-2-carboxamide]
260 | N#Cc1cccc(-c2cc(CNC(=O)[C@@H]3CCCN3S(=O)(=O)c3cc4ccccc4o3)ccn2)c1 [Example 118, (2S)-1-(benzofuran-2-ylsulfonyl)-N-[[2-(3-cyanophenyl)-4-pyridyl]methyl]pyrrolidine-2-carboxamide]
12 | N#Cc1ccc(-c2cc(CNC(=O)[C@@H]3CCCN3S(=O)(=O)c3cc4ccccc4o3)ccn2)cc1F [Example 119, (2S)-1-(benzofuran-2-ylsulfonyl)-N-[[2-(4-cyano-3-fluoro-phenyl)-4-pyridyl]methyl]pyrrolidine-2-carboxamide]
32 | O=C(NCc1ccnc(-c2ccc(F)cc2O)c1)[C@@H]1CCCN1S(=O)(=O)c1cc2ccccc2o1 [Example 121, (2S)-1-(benzofuran-2-ylsulfonyl)-N-[[2-(4-fluoro-2-hydroxy-phenyl)-4-pyridyl]methyl]pyrrolidine-2-carboxamide]
2.6 | O=C(NCc1ccnc(-c2ccc(C(F)(F)F)cc2O)c1)[C@@H]1CCCN1S(=O)(=O)c1cc2ccccc2o1 [Example 123, (2S)-1-(benzofuran-2-ylsulfonyl)-N-[[2-[2-hydroxy-4-(trifluoromethyl)phenyl]-4-pyridyl]methyl]pyrrolidine-2-carboxamide]
3.4 | O=C(NCc1ccnc(-c2ccc(C(F)(F)F)nc2)c1)[C@@H]1CCCN1S(=O)(=O)c1cc2ccccc2o1 [Example 124, (2S)-1-(benzofuran-2-ylsulfonyl)-N-[[2-[6-(trifluoromethyl)-3-pyridyl]-4-pyridyl]methyl]pyrrolidine-2-carboxamide]
240 | CN(C)c1ccc(-c2cc(CNC(=O)[C@@H]3CCCN3S(=O)(=O)c3cc4ccccc4o3)ccn2)cn1 [Example 125, (2S)-1-(benzofuran-2-ylsulfonyl)-N-[[2-[6-(dimethylamino)-3-pyridyl]-4-pyridyl]methyl]pyrrolidine-2-carboxamide]
25 | Cn1nc(C(F)(F)F)cc1-c1cc(CNC(=O)[C@@H]2CCCN2S(=O)(=O)c2cc3ccccc3o2)ccn1 [Example 127, (2S)-1-(benzofuran-2-ylsulfonyl)-N-[[2-[2-methyl-5-(trifluoromethyl)pyrazol-3-yl]-4-pyridyl]methyl]pyrrolidine-2-carboxamide]
0.61 | O=C(NCc1ccnc(-c2ccc(C(F)(F)F)cc2)c1)[C@@H]1CCCN1S(=O)(=O)c1cc2cc(F)ccc2o1 [Example 128, (2S)-1-(5-fluorobenzofuran-2-yl)sulfonyl-N-[[2-[4-(trifluoromethyl)phenyl]-4-pyridyl]methyl]pyrrolidine-2-carboxamide]
0.83 | O=C(NCc1ccnc(-c2ccc(C(F)(F)F)nc2)c1)[C@@H]1CCCN1S(=O)(=O)c1cc2cc(F)ccc2o1 [Example 133, (2S)-1-(5-fluorobenzofuran-2-yl)sulfonyl-N-[[2-[6-(trifluoromethyl)-3-pyridyl]-4-pyridyl]methyl]pyrrolidine-2-carboxamide]
